Tested on: subjects with no history of cardiovascular disease, blood hs-CRP value of at least 1.0 mg/L
Assay: Hisayama epidemiologic study: events by administration of statin drug and EPA in the high hs-CRP group
Assay type: in vivo, human
Source text: The Hisayama study is an epidemiologic study of cerebral stroke, cardiovascular disease, and the like that has been conducted with the residents of the town of Hisayama town (population, about 8,400) in Kasuya county of Fukuoka prefecture adjacent to Fukuoka city from 1961. The age and occupation distributions of the residents of Hisayama town were almost identical to those of Japan as a whole, and the residents can be regarded as an average group of Japanese people with substantially no bias. Features of the Hisayama study include participation of all residents (who are at least 40 years old), prospective cohort study, examination and home visit by the stuff of the study, consultation rate (at least 80%), autopsy rate (about 80%), and follow-up rate (at least 99%), and the most characteristic feature of this study is the high rate of autopsy. No diagnosis is more accurate than autopsy in finding out the accurate cause of the death, and the precision of the follow up study is also high. In addition, the Hisayama study periodically adds the residents who have reached 40 years old to the group every 5 years, and estimation of influence of the life style transition as well as change of risk factors was thereby enabled.
3,103 residents of 40 years old or older who were registered in 2002 were used for the subject excluding those who have history of cardiovascular disease and those with no data of EPA/AA ratio. Average follow-up period was 5.1 years.
The group with a blood hs-CRP value of at least 1.0 mg/L (high hs-CRP group) was extracted from the entire subjects. The blood hs-CRP value was quantitated by using a commercially available assay kit.
The high hs-CRP group was further divided into 4 groups by the administration and non-administration of the statin drug and the administration and non-administration of the EPA.
In the table, “statin (−)+EPA (−)” means that neither the statin drug nor the EPA was administered to a subject; “statin (+)+EPA (−)” means that the statin drug was administered but not the EPA; “statin (−)+EPA (+)” means that the statin drug was not administered despite the administration of the EPA; and “statin (+)+EPA (+)” means that both the statin drug and the EPA were administered. Furthermore, “event (−)” and “event (+)” […].

[1] = high hs-CRP group, EPA irrespective of statin, statin drug vs no statin within the group with no EPA
[2] = number of subjects, high hs-CRP group (hs-CRP ≧1.0 mg/L), average follow-up 5.1 years

CC/C=C\C/C=C\C/C=C\C/C=C\C/C=C\CCCC(=O)O [EPA, all-cis-5,8,11,14,17-icosapentaenoic acid]
Cerebral stroke event occurrence (in words) (entire subjects, irrespective of administration of the statin drug): no event occurred
Cardiovascular disease event occurrence (in words) [1]: no event occurred
Cerebral stroke event occurrence (in words) [1]: no event occurred
Coronary artery disease event occurrence (in words) [1]: no event occurred
Cardiovascular disease, Event (+) [2]: 0
Cardiovascular disease, Event (−) [2]: 4
Cerebral stroke, Event (+) [2]: 0
Cerebral stroke, Event (−) [2]: 4
Coronary artery disease, Event (+) [2]: 0
Coronary artery disease, Event (−) [2]: 4
